The values that follow come from publication PMC8198190, “The PFKFB3 Inhibitor AZ67 Inhibits Angiogenesis Independently of Glycolysis Inhibition” (International Journal of Molecular Sciences, 2021).

Broadly, the Kd is a measure of binding affinity in units of concentration.

This assay has as its target T1, PFKFB3 (6-phosphofructo-2-kinase/fructose-2,6-bisphosphatase-3) (Homo sapiens, UniProt Q16875).
T1 construct: recombinant human PFKFB3 produced in E. coli
As to the kind of experiment: isothermal titration calorimetry (MicroCal Peaq-ITC, […] °C, triplicate). It counts as binding. On the technique in general: Isothermal titration calorimetry measures the heat released or taken up as one component is titrated into another.

T1 sequence (Q16875 whole entry): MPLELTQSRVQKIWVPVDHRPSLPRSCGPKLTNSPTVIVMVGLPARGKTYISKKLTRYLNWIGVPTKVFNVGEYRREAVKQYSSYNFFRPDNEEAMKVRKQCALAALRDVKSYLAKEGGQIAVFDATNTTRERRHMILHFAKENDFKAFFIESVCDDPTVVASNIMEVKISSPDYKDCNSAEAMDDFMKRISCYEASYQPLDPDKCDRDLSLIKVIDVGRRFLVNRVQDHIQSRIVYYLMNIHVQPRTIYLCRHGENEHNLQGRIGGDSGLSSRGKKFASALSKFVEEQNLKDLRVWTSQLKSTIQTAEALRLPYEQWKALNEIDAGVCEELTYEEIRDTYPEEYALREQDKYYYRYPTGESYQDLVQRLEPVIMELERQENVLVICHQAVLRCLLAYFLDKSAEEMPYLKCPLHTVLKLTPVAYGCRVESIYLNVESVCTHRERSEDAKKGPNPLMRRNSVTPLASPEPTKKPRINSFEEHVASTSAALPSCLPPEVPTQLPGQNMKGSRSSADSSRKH

For the compound `Cc1noc(C)c1Cn1cc(C#N)c2cc(Oc3ccc(NC(=O)[C@@H]4CCCN4)cc3)ccc21` [AZ67], binding was characterised by a dissociation constant (Kd) of 168 nM.
